Data reported in ChEMBL document CHEMBL4680187, “Optimization of EphA2 antagonists based on a lithocholic acid core led to the identification of UniPR505, a new 3α-carbamoyloxy derivative with antiangiogenetic properties” (Eur J Med Chem, 2020).
Calls of active or inactive are those of the source. No cut-off for these calls is given here.

Key:
[1] = molecular target: T1, Ephrin type-A receptor 6 (Mus musculus, UniProt Q62413); test: Displacement of biotinylated ephrin-A1-Fc from mouse EphA6 Fc preincubated for 1 hr followed by ephrin-A1-FC addition and measured after 4 hrs by ELISA
T1 sequence (Q62413 whole entry): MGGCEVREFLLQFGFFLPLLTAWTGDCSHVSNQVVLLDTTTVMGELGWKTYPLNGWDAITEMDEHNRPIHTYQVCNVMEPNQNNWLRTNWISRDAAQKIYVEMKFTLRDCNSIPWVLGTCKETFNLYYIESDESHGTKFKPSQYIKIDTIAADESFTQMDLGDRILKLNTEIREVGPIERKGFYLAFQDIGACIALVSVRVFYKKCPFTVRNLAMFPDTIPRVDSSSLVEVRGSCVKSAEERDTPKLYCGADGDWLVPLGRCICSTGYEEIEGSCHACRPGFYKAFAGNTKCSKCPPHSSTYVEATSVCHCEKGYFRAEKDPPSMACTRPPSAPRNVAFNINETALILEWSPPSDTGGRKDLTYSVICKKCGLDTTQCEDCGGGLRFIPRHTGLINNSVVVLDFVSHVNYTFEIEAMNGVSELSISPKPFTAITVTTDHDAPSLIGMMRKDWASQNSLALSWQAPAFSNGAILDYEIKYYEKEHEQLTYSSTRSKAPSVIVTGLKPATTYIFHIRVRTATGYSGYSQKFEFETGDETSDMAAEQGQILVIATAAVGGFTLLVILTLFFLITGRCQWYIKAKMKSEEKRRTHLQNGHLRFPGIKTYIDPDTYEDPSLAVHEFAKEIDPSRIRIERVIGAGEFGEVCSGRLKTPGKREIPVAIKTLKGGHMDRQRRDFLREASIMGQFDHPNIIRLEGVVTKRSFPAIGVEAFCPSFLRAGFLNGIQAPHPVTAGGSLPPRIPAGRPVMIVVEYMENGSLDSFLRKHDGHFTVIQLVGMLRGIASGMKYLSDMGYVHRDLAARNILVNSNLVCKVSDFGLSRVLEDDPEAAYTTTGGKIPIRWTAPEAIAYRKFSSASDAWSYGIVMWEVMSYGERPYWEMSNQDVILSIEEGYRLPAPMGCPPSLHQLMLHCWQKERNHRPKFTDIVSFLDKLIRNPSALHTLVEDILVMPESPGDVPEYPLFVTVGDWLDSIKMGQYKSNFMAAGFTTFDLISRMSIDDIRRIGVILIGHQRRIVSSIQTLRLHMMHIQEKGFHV

[2] = system: Chorioallantoic membrane; test: Antiangiogenic activity in Leghorn chicken fertilized egg chorioallantoic membrane assessed as reduction in unstimulated neovascularization at 10 uM measured after 3 days by CAM assay; assay type: functional, tissue-based; details: Gallus gallus, time 3.0 day
[3] = molecular target: T2, Ephrin type-A receptor 1 (Homo sapiens, UniProt P21709); test: Displacement of biotinylated ephrin-A1-Fc from human EphA1 Fc preincubated for 1 hr followed by ephrin-A1-FC addition and measured after 4 hrs by ELISA
T2 sequence (P21709 whole entry): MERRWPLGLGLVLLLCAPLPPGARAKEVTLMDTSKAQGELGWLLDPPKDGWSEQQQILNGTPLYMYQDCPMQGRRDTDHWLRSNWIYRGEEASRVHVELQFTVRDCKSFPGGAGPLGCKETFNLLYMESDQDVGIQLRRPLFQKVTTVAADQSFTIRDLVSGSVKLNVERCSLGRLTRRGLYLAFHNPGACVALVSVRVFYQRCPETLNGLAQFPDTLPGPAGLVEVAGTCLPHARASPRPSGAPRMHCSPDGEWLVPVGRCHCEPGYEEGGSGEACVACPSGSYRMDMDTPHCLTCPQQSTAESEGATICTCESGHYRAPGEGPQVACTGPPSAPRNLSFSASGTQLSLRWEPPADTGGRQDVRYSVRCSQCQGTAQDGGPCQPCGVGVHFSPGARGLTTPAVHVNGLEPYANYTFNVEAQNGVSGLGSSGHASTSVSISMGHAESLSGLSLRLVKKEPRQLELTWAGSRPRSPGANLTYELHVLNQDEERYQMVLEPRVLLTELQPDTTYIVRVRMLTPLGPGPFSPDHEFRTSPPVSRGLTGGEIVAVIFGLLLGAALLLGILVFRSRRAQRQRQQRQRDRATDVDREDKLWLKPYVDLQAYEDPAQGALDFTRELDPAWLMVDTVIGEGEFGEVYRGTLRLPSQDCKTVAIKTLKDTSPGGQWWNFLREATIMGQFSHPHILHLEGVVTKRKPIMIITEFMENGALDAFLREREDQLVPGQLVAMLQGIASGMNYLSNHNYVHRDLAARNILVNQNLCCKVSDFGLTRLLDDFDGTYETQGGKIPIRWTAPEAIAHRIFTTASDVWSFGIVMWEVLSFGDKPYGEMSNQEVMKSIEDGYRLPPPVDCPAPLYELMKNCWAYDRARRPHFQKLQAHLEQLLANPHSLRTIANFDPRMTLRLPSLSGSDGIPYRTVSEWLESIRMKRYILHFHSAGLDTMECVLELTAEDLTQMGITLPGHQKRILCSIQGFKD

[4] = molecular target: Ephrin type-A receptor 5 (Rattus norvegicus, UniProt P54757); test: Displacement of biotinylated ephrin-A1-Fc from rat EphA5 Fc preincubated for 1 hr followed by ephrin-A1-FC addition and measured after 4 hrs by ELISA
Sequence of Ephrin type-A receptor 5 (P54757 whole entry): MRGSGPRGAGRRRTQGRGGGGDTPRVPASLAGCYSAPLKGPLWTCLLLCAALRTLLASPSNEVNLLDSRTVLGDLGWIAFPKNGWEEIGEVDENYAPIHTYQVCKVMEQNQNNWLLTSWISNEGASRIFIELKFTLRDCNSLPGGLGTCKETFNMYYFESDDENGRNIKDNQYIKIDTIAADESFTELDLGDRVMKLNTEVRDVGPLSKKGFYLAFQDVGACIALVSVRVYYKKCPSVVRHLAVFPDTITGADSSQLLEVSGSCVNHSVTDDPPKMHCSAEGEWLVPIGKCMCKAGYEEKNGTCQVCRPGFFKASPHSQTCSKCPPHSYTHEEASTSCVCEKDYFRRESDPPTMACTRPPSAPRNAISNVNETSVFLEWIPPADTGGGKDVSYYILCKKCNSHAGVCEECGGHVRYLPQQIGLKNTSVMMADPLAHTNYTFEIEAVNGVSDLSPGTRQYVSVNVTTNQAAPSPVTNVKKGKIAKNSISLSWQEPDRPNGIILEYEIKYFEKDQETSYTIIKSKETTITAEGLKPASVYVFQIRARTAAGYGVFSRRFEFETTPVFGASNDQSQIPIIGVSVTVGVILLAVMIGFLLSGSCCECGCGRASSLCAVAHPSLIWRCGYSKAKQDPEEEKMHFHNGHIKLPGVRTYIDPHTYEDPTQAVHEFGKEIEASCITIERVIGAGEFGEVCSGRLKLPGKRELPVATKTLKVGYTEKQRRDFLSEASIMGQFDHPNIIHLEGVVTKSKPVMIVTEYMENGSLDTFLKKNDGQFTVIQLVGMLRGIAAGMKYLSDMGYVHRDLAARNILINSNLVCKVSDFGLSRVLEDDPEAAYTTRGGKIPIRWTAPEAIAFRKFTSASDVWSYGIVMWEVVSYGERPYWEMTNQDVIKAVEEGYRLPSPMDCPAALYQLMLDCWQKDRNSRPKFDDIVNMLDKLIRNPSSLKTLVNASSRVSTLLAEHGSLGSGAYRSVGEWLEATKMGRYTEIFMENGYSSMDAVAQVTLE

[5] = system: PC-3; test: Cytotoxicity against human PC3 cells after 2 hrs by LDH assay; assay type: cell-based; details: pc-3, 2 h

SMILES: CCNC(=O)O[C@@H]1CC[C@@]2(C)[C@H](CC[C@@H]3[C@@H]2CC[C@]2(C)[C@@H]([C@H](C)CCC(=O)N[C@H](CC(=O)O)Cc4c[nH]c5ccccc45)CC[C@@H]32)C1
- IC50 [1]: 18 µM
- Activity [2]: inactive
- IC50 [3]: > 30 µM
- IC50 [4]: 4.4 µM
- Activity [5]: Non-Toxic
